In patent publication US11306101B2 (Celgene Corporation, priority 2019, dated 2022) one finds DC50 and Y data, which are given here for 32 compounds.

This test has as its target T1, CK1α (Homo sapiens, UniProt P48729+Q96SW2).
T1 construct: expressed in transfected cells
Put plainly: CK1α ePL degradation assay in MDS-L cells. The following applies: MDS-L cells expressing ePL-tagged CK1α; for DC50: concentration giving 50% CK1α degradation vs DMSO control; for Y: lowest measured CK1α level normalized to DMSO control. It counts as cell-based. As for the experimental part:
The following is an example of an assay that can be used to determine the CK1α degradation activity of Isoindolinone Carboxamide Compounds in a cell line, for example, the MDS-L cell line.
Compounds were dispensed by an acoustic dispenser (ATS acoustic transfer system from EDC Biosystems) into a 384-well in a 10 point dose-response curve using 3-fold dilutions starting at 10 μM and going down to 0.0005 μM in DMSO. […] Assay plates were incubated at 37° C. with 5% CO2 for the indicated times. At the different time points, 25 μL of the InCELL Hunter™ Detection Reagent Working Solution (catalog number 96-0002, DiscoverX, Fremont, Calif.) was added to each well and incubated at RT for 30 min protected from light. After 30 min, luminescence was read on a PHERAstar luminometer (BMG LABTECH, Cary, N.C.).
CK1α levels in compound-treated wells were normalized to that of DMSO control and expressed as percent of control (PoC) (y).
The lowest measured CK1α level normalized to DMSO control in response to compound treatment, termed Y value, was used to characterize the compound-mediated CK1α degradation efficiency.

T1 sequence (P48729 whole entry): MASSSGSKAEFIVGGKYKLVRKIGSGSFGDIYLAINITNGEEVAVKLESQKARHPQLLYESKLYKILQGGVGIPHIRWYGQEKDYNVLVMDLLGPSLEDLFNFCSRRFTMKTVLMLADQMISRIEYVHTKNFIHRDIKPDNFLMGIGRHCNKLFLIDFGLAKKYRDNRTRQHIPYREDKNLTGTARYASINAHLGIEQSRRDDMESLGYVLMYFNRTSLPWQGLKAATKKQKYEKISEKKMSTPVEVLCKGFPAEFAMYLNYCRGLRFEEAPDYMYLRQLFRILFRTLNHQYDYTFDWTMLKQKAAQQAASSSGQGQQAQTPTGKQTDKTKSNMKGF
T1 sequence (Q96SW2 whole entry): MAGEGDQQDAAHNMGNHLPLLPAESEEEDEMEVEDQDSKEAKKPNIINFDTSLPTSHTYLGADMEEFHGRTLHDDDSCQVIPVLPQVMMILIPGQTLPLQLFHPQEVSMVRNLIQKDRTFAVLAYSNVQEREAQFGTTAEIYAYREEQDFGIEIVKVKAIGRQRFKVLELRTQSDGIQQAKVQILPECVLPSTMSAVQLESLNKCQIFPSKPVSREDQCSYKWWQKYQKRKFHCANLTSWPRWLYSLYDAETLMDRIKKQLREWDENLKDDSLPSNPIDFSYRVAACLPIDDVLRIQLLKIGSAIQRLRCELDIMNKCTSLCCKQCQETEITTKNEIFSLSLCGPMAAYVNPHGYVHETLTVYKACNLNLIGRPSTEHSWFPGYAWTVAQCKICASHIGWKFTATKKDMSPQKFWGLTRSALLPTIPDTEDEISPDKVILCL
T1 sequence (Q16531 whole entry partner): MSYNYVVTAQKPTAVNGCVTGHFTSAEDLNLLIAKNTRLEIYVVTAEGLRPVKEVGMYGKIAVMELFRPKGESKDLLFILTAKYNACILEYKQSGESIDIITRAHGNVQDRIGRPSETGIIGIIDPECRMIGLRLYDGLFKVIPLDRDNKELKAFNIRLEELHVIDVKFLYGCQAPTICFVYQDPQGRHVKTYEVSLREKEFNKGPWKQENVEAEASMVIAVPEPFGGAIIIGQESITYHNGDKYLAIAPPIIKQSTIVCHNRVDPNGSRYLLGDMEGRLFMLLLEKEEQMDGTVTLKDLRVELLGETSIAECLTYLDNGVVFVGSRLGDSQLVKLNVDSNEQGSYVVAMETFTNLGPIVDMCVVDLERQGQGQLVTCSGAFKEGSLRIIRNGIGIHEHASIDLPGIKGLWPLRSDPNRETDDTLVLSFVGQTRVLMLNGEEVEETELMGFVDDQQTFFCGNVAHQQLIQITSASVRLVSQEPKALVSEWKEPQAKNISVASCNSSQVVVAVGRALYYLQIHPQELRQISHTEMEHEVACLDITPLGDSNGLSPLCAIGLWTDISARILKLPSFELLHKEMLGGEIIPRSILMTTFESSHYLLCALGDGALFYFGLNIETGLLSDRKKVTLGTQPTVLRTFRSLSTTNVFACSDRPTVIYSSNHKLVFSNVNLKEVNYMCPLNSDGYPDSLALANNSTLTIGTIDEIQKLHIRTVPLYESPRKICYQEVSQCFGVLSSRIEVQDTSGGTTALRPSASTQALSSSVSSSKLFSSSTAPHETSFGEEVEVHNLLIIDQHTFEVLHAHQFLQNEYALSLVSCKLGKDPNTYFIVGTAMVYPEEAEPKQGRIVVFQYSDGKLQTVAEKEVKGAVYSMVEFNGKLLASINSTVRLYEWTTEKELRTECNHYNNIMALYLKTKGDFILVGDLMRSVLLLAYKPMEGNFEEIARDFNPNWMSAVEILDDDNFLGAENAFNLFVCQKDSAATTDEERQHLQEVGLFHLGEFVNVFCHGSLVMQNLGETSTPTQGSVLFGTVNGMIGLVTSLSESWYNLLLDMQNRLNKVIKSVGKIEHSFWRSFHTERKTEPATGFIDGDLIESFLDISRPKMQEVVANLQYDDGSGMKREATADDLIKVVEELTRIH

For `C[C@H](NC(=O)c1ccc2c(c1)CN(C1CCC(=O)NC1=O)C2=O)c1ccccc1` (stereo partly drawn) [Example 1, 2-(2,6-Dioxopiperidin-3-yl)-1-oxo-N—((S)-1-phenylethyl)isoindoline-5-carboxamide], the DC50 is less than 100 nM and the Y entry is listed as “* (a Y value (shown as *) of 0<Y≤20%)”.

In the case of `CC(C)NC(=O)c1ccc2c(c1)CN(C1CCC(=O)NC1=O)C2=O` (stereo not shown) [Example 2], the DC50 lay in the range of 100 to 500 nM and the Y entry is recorded as “** (a Y value (shown as**) of 20%<Y≤35%)”.

Consider `C[C@H](NC(=O)c1ccc2c(c1)CN(C1CCC(=O)NC1=O)C2=O)C1CCCC1` (stereo partly shown) [Example 3], for which the DC50 was less than 100 nM and the Y result is “* (a Y value (shown as *) of 0<Y≤20%)”.

For `C[C@@H](NC(=O)c1ccc2c(c1)CN(C1CCC(=O)NC1=O)C2=O)C1CCCCC1` (stereo partly shown) [Example 4], the DC50 is less than 100 nM and the Y result is reported as “* (a Y value (shown as *) of 0<Y≤20%)”.

For the compound `C[C@H](NC(=O)c1ccc2c(c1)CN(C1CCC(=O)NC1=O)C2=O)C1CC1` (stereo partly shown) [Example 5], the DC50 lay within 100 to 500 nM and the Y result is “** (a Y value (shown as**) of 20%<Y≤35%)”.

Turning to `CC[C@H](NC(=O)c1ccc2c(c1)CN(C1CCC(=O)NC1=O)C2=O)c1ccccc1` (stereo partly shown) [Example 6], the DC50 is less than 100 nM and the Y result is “* (a Y value (shown as *) of 0<Y≤20%)”.

Regarding `Cc1ccc([C@H](C)NC(=O)c2ccc3c(c2)CN(C2CCC(=O)NC2=O)C3=O)cc1` (stereo partly shown) [Example 7], the DC50 was less than 100 nM and the Y entry is “* (a Y value (shown as *) of 0<Y≤20%)”.

On to `C[C@H](NC(=O)c1ccc2c(c1)CN(C1CCC(=O)NC1=O)C2=O)c1ccc(Cl)cc1` (stereo partly shown) [Example 8], for which the DC50 is less than 100 nM and the Y entry is “* (a Y value (shown as *) of 0<Y≤20%)”.

Take `C[C@H](NC(=O)c1ccc2c(c1)CN(C1CCC(=O)NC1=O)C2=O)C1CCC1` (stereo partly shown) [Example 9]: the DC50 is less than 100 nM and the Y entry was “** (a Y value (shown as**) of 20%<Y≤35%)”.

Regarding `C[C@H](NC(=O)c1ccc2c(c1)CN(C1CCC(=O)NC1=O)C2=O)c1ccccn1` (stereo partly shown) [Example 10], the DC50 was in the range of 100 to 500 nM and the Y entry is given as “** (a Y value (shown as**) of 20%<Y≤35%)”.

As to `C[C@H](NC(=O)c1ccc2c(c1)CN(C1CCC(=O)NC1=O)C2=O)c1cccc(C#N)c1` (stereo partly shown) [Example 11], the DC50 lay within 100 to 500 nM and the Y result was “** (a Y value (shown as**) of 20%<Y≤35%)”.

Consider `COc1ccc([C@H](C)NC(=O)c2ccc3c(c2)CN(C2CCC(=O)NC2=O)C3=O)cc1` (stereo partly shown) [Example 12], for which the DC50 was less than 100 nM and the Y entry was “** (a Y value (shown as**) of 20%<Y≤35%)”.

With `C[C@H](NC(=O)c1ccc2c(c1)CN(C1CCC(=O)NC1=O)C2=O)c1cccc(Cl)c1` (stereo partly shown) [Example 15], the DC50 was less than 100 nM and the Y result was “* (a Y value (shown as *) of 0<Y≤20%)”.

As to `C[C@H](NC(=O)c1ccc2c(c1)CN(C1CCC(=O)NC1=O)C2=O)c1ccc(F)cc1` (stereo partly shown) [Example 16], the DC50 was less than 100 nM and the Y entry is reported as “** (a Y value (shown as**) of 20%<Y≤35%)”.

`C[C@H](NC(=O)c1ccc2c(c1)CN(C1CCC(=O)NC1=O)C2=O)c1cccnc1` (stereo partly shown) [Example 19]: the DC50 lay within 100 to 500 nM and the Y result is “** (a Y value (shown as**) of 20%<Y≤35%)”.

Consider `O=C1CCC(N2Cc3cc(C(=O)N[C@H](C4CCCCC4)C(F)(F)F)ccc3C2=O)C(=O)N1` (stereo partly shown) [Example 23], for which the DC50 was less than 100 nM and the Y entry is “* (a Y value (shown as *) of 0<Y≤20%)”.

With `CC(C)[C@H](C)NC(=O)c1ccc2c(c1)CN(C1CCC(=O)NC1=O)C2=O` (stereo partly shown) [Example 28], the DC50 is 100 to 500 nM and the Y result is listed as “** (a Y value (shown as**) of 20%<Y≤35%)”.

`C[C@H](NC(=O)c1ccc2c(c1)CN(C1CCC(=O)NC1=O)C2=O)C(C)(C)C` (stereo partly shown) [Example 30]: the DC50 was 500 to 1000 nM and the Y entry is listed as “** (a Y value (shown as**) of 20%<Y≤35%)”.

For the compound `COc1cccc([C@@H](NC(=O)c2ccc3c(c2)CN(C2CCC(=O)NC2=O)C3=O)C(F)(F)F)c1` (stereo partly shown) [Example 33], the DC50 is less than 100 nM and the Y entry is reported as “* (a Y value (shown as *) of 0<Y≤20%)”.

Regarding `CC(C)(C)[C@@H](NC(=O)c1ccc2c(c1)CN(C1CCC(=O)NC1=O)C2=O)C(F)(F)F` (stereo partly drawn) [Example 34, 2-(2,6-dioxopiperidin-3-yl)-1-oxo-N-((R)-1,1,1-trifluoro-3,3-dimethylbutan-2-yl)isoindoline-5-carboxamide], the DC50 is 100 to 500 nM and the Y entry is “** (a Y value (shown as**) of 20%<Y≤35%)”.

On to `COc1ccc([C@@H](NC(=O)c2ccc3c(c2)CN(C2CCC(=O)NC2=O)C3=O)C(F)(F)F)cc1` (stereo partly drawn) [Example 35, 2-(2,6-dioxopiperidin-3-yl)-1-oxo-N-((R)-2,2,2-trifluoro-1-(4-methoxyphenyl)ethyl)isoindoline-5-carboxamide], for which the 50% degradation concentration (DC50) was less than 100 nM and the Y entry was “* (a Y value (shown as *) of 0<Y≤20%)”.

Take `O=C1CCC(N2Cc3cc(C(=O)N[C@H](C4CCOCC4)C(F)(F)F)ccc3C2=O)C(=O)N1` (stereo partly drawn) [Example 36, 2-(2,6-dioxopiperidin-3-yl)-1-oxo-N-((R)-2,2,2-trifluoro-1-(tetrahydro-2H-pyran-4-yl)ethyl)isoindoline-5-carboxamide]: the DC50 lay within 100 to 500 nM and the Y result was “** (a Y value (shown as**) of 20%<Y≤35%)”.

As to `O=C1CCC(N2Cc3cc(C(=O)N[C@H](c4cccc(F)c4)C(F)(F)F)ccc3C2=O)C(=O)N1` (stereo partly drawn) [Example 37, 2-(2,6-dioxopiperidin-3-yl)-1-oxo-N-((R)-2,2,2-trifluoro-1-(3-fluorophenyl)ethyl)isoindoline-5-carboxamide], the DC50 is less than 100 nM and the Y result was “** (a Y value (shown as**) of 20%<Y≤35%)”.

As to `COc1ccccc1[C@@H](NC(=O)c1ccc2c(c1)CN(C1CCC(=O)NC1=O)C2=O)C(F)(F)F` (stereo partly drawn) [Example 38, 2-(2,6-dioxopiperidin-3-yl)-1-oxo-N-((R)-2,2,2-trifluoro-1-(2-methoxyphenyl)ethyl)isoindoline-5-carboxamide], the DC50 was less than 100 nM and the Y result is “* (a Y value (shown as *) of 0<Y≤20%)”.

With `O=C1CCC(N2Cc3cc(C(=O)N[C@H](c4ccncc4)C(F)(F)F)ccc3C2=O)C(=O)N1` (stereo partly drawn) [Example 39, 2-(2,6-dioxopiperidin-3-yl)-1-oxo-N-((R)-2,2,2-trifluoro-1-(pyridin-4-yl)ethyl)isoindoline-5-carboxamide], the DC50 lay in the range of 500 to 1000 nM and the Y entry was “*** (a Y value (shown as***) of 35%<Y<50%)”.

Consider `O=C1CCC(N2Cc3cc(C(=O)N[C@H](c4ccc(C(F)(F)F)cc4)C(F)(F)F)ccc3C2=O)C(=O)N1` (stereo partly drawn) [Example 40, 2-(2,6-dioxopiperidin-3-yl)-1-oxo-N-((R)-2,2,2-trifluoro-1-(4-(trifluoromethyl)phenyl)ethyl)isoindoline-5-carboxamide], for which the DC50 was less than 100 nM and the Y entry is “* (a Y value (shown as *) of 0<Y≤20%)”.

With `O=C1CCC(N2Cc3cc(C(=O)N[C@H](c4ccc(OC(F)(F)F)cc4)C(F)(F)F)ccc3C2=O)C(=O)N1` (stereo partly drawn) [Example 41, 2-(2,6-dioxopiperidin-3-yl)-1-oxo-N-((R)-2,2,2-trifluoro-1-(4-(trifluoromethoxy)phenyl)ethyl)isoindoline-5-carboxamide], the DC50 lay in the range of 100 to 500 nM and the Y entry is “* (a Y value (shown as *) of 0<Y≤20%)”.

As to `O=C1CCC(N2Cc3cc(C(=O)N[C@H](c4ccc(Cl)cc4)C(F)(F)F)ccc3C2=O)C(=O)N1` (stereo partly drawn) [Example 42, N-((R)-1-(4-chlorophenyl)-2,2,2-trifluoroethyl)-2-(2,6-dioxopiperidin-3-yl)-1-oxoisoindoline-5-carboxamide], the DC50 is less than 100 nM and the Y entry was “* (a Y value (shown as *) of 0<Y≤20%)”.

For the compound `O=C1CCC(N2Cc3cc(C(=O)N[C@H](c4cccc(Cl)c4)C(F)(F)F)ccc3C2=O)C(=O)N1` (stereo partly drawn) [Example 43, N-((R)-1-(3-chlorophenyl)-2,2,2-trifluoroethyl)-2-(2,6-dioxopiperidin-3-yl)-1-oxoisoindoline-5-carboxamide], the DC50 was less than 100 nM and the Y result was “* (a Y value (shown as *) of 0<Y≤20%)”.

Consider `O=C1CCC(N2Cc3cc(C(=O)N[C@H](c4ccccc4OC(F)(F)F)C(F)(F)F)ccc3C2=O)C(=O)N1` (stereo partly drawn) [Example 44, 2-(2,6-dioxopiperidin-3-yl)-1-oxo-N-((R)-2,2,2-trifluoro-1-(2-(trifluoromethoxy)phenyl)ethyl)isoindoline-5-carboxamide], for which the DC50 is less than 100 nM and the Y result is “* (a Y value (shown as *) of 0<Y≤20%)”.

With `O=C1CCC(N2Cc3cc(C(=O)N[C@H](C4CCC(F)(F)CC4)C(F)(F)F)ccc3C2=O)C(=O)N1` (stereo partly drawn) [Example 45, N-((R)-1-(4,4-difluorocyclohexyl)-2,2,2-trifluoroethyl)-2-(2,6-dioxopiperidin-3-yl)-1-oxoisoindoline-5-carboxamide], the DC50 was in the range of 100 to 500 nM and the Y result was “* (a Y value (shown as *) of 0<Y≤20%)”.

Regarding `CC1(C)CCC([C@@H](NC(=O)c2ccc3c(c2)CN(C2CCC(=O)NC2=O)C3=O)C(F)(F)F)CC1` (stereo partly drawn) [Example 46, N-((R)-1-(4,4-dimethylcyclohexyl)-2,2,2-trifluoroethyl)-2-(2,6-dioxopiperidin-3-yl)-1-oxoisoindoline-5-carboxamide], the DC50 is 100 to 500 nM and the Y result is “* (a Y value (shown as *) of 0<Y≤20%)”.

The term DC50 denotes the midpoint of the concentration-degradation curve.
